# “Also recorded” adds a separate entry of the source. Where no end group is shown, it is not given here.
# Assays:
# C. sojina Cs350 cells = experiment: Uptake and subcellular localization by time-lapse confocal microscopy; assay type: cell-based, Cercospora sojina; conditions: DyLight550-labeled peptide; nuclear localization mostly at 0.75 μM (0.5× MIC); Hoechst, CMAC and BODIPY co-staining
# Description: NCR13_PFV1 was labeled with DyLight550 amine-reactive dye following the manufacturer’s instructions (Thermo Scientific), and time-lapse confocal microscopy was performed to measure the uptake and subcellular localization of the peptide in C. sojina Cs350 cells. The nuclear staining dye Hoechst 3352 was used along with DyLight550-NCR13_PFV1 to determine the subcellular localization of NCR13_PFV1 in C. sojina. Conidia grown for 6–8 h were treated with 0.75 µM Dylight550-NCR13_PFV1 and incubated for 30 min, after which 4 µM Hoechst 3352 dye was added for another 15 min. Treated conidia were used to capture z-stacks at specific time intervals using a Leica SP8-X confocal microscope (×63 water immersion objective lens, HC PL Apochromat CS2) in fluorescence and transmitted light mode. The excitation and emission wavelengths of DyLight550-NCR13_PFV1 and Hoechst 3352 were 550 nm, 560–660 nm, and 405 nm, 420–500 nm, respectively. Similarly, to determine the subcellular localization of NCR13_PFV1 in other organelles, C. sojina conidia were also stained with the vacuole-specific dye CMAC and the lipid staining dye BODIPY 493/503 (Thermo Scientific). The excitation and emission wavelengths for CMAC and BODIPY were 405 nm, 420–500 nm, and 493 nm, 505–540 nm, respectively.
# [1] = test system: C. sojina QoI fungicide-sensitive isolate Cs320; experiment: microbe, parasite or virus in culture; assay type: cell-based, Cercospora sojina; conditions: SFM, ~10^5 conidia ml−1, room temperature, 48 h; resazurin cell viability assay and microscopy
# Description: In vitro antifungal activity of AFPs and QoI fungicides was determined using 96-well plate assays as described ([Velivelli et al., 2020]) with slight modifications. Briefly, 2- to 3-week-old C. sojina was used to make a conidial suspension in 2× SFM at the final concentration of ∼10^5 conidia ml^−1. Simultaneously, peptide dilutions (in water) at various concentrations were made. Fungicides were dissolved in 50% acetone and 50% water to make a stock solution of 500 µM, and serial dilutions were made in water as needed. The peptide–conidia or the fungicide–conidia mixture at the ratio of 1:1 (45 µl:45 µl) was added in a 96-well plate and incubated at room temperature for 48 h, after which MICs of the peptides/fungicides were calculated based on microscopy as well as the resazurin cell viability assay ([Velivelli et al., 2020]).
# B. cinerea = experiment: In vitro antifungal activity against B. cinerea; assay type: cell-based, Botrytis cinerea
# C. sojina rRNA = experiment: Electrophoretic mobility shift assay (EMSA); assay type: binding, Cercospora sojina; conditions: ~200 ng C. sojina RNA, 10 mM Tris–HCl pH 8.0, 1 mM EDTA, 1 h, room temperature
# Description: To determine the RNA binding ability of NCR13_PFV1, EMSA was performed as described in [Godwin et al. (2024)]. Briefly, total RNA was extracted from C. sojina Cs350 grown in SFM using the ZymoBIOMICS DNA/RNA Miniprep Kit (Zymo Research). Approximately 200 ng of the fungal RNA was mixed with different concentrations of NCR13_PFV1 in 20 μl of binding buffer (10 mM Tris–HCl, pH 8.0, 1 mM EDTA), incubated at room temperature for 1 h, and run through gel electrophoresis.
# [2] = test system: C. sojina Cs320 and Cs350 on soybean cv. Blackhawk (FLS); experiment: Pre- and post-inoculation in planta antifungal assays with fungal DNA qPCR; assay type: in vivo, Cercospora sojina
# Description: For both pre- and post-inoculation in planta antifungal activity assays, 2- to 3-week-old soybean plants cv. Blackhawk (FLS susceptible) grown under a16 h light and 8 h dark cycle were used. For pre-inoculation in planta antifungal activity assay, the second or third trifoliate leaves of soybean plants were first sprayed with 1 ml of NCR13_PFV1 peptide (48 µM) on the abaxial leaf surface followed by spray inoculation with 1 ml of conidial suspension (1×10^5 ml^−1) of azoxystrobin-sensitive Cs320 or -resistant Cs350 isolate. For the post-inoculation in planta antifungal activity assay, the second or third trifoliate leaves of soybean were first spray-inoculated with 1 ml of conidial suspension (1×10^5 ml^−1) followed by spray application of 1 ml of NCR13_PFV1 peptide (48 µM) 2 h later. The mock-treated plants were sprayed with water but no peptide. For both pre- and post-inoculation in planta assays, each treatment consisted of at least four plants and the experiments were performed at least twice. The inoculated plants were kept in a growth chamber under a 16 h light and 8 h dark cycle and 90% relative humidity. The FLS symptoms started to appear 7–10 d post-inoculation and disease scoring was done at 14 d. Diseased leaves were excised from the plant, and both white light and CropReporter (Fv/Fm) images were taken to assess the photosynthetic efficiency of the plant. The leaves were also scored based on a 0–5 scale where: 0=healthy leaves with no leaf spots, 1=1–25% leaf area covered with spots, 2=26–50% leaf area covered with spots, 3=slightly yellow leaves with 51–75% leaf area covered with spots, 4=moderately yellow leaves with 76–95% leaf area covered with spots, and 5=whole leaf is yellow or >96% leaf area covered with spots.
# Furthermore, DNA was extracted from the excised leaves to quantify the fungal DNA content using quantitative PCR (PCR). […] DNA quantification in terms of fold change was calculated using the ΔΔCt method ([Livak and Schmittgen, 2001]). […]
# [3] = Heme-peptide binding assay (colour change); conditions: equimolar heme and peptide, 100 µM, 1 h, room temperature
# Description: Heme solutions were freshly prepared by dissolving hemin chloride (Sigma Cat No: 3741) in 0.1 M NaOH and used within an hour after preparation. Two heme-sequestering peptides, NCR247 and NCR455 ([Montiel et al., 2017]; [Sankari et al., 2022]), were used as positive controls, and water-only treatment as a negative control. The equimolar concentration of heme and peptide (100 µM) or water were mixed and incubated at room temperature for 1 h. When dissolved in NaOH, heme is light to dark brown in color; however, when it binds to a peptide, the color changes to reddish-brown as described by [Sankari et al. (2022)]. The change in color of heme to reddish-brown indicated the heme binding ability of the peptide.
sequence,measurement,setting,value
"TKPCQSDKDCKKFACRKPKVPKCINGFCKCVR (disulfide (positions not given here)) [NCR13_PFV1, chickpea nodule-specific cysteine-rich 32 amino acid peptide, disulfide cross-linking variant 1, expressed in Pichia pastoris]",subcellular localization,C. sojina Cs350 cells,localized to the nucleus; also recorded: no evidence of co-localization of the peptide with either lipid bodies or the vacuole
same,"MIC (μM) against C. sojina isolates, Fungicide sensitive, Cs320",[1],0.75 µM
same,fold increase in MIC against B. cinerea with increasing iron,B. cinerea; iron from 5 µM to 30 μM,4 fold
same,MIC against B. cinerea at low iron,B. cinerea; medium with 5 µM iron,0.375 µM
same,MIC against B. cinerea at high iron,B. cinerea; medium with 30 μM iron,1.5 µM
same,concentration from which binding to rRNA was observed,C. sojina rRNA,6 µM
same,"fungal biomass in infected leaves (fungal DNA, qPCR)","[2]; 48 µM spray, Cs320 and Cs350, P-value ≤0.05",significantly reduced biomass
same,"FLS symptoms (disease severity, 0–5 scale)","[2]; 48 µM spray, pre- or post-inoculation (2 h), Cs320 or Cs350, scored at 14 d, Wilcoxon, P-value ≤0.05, n=8, r=2",significantly reduced
same,concentration giving the best control of FLS symptoms,"[2]; preliminary experiments, 12 µM to 48 µM tested",48 µM
same,heme binding (colour change of heme from brown to reddish-brown),[3],no such color change

# From article PMC13672995, “NCR13 peptide protects soybean against Cercospora sojina using multi-faceted modes of action and additive interaction with chemical fungicides” (Journal of Experimental Botany, 2025)
